Data: patent publication EP3570868B1, “[…] ANTIMICROBIAL PEPTIDES AND THEIR APPLICATIONS FOR THE TREATMENT AND PREVENTION OF MUSCU[…]” (Ustav Organicke Chemie a Biochemie AV CR, v.v.i., priority 2017, dated 2018)
Peptide text beside a SMILES is read from it.

How the values were obtained:
[1] = tested on: Candida albicans yeast (clinical isolate Olomouc); assay: Comparison of two similar halictin peptides for biofilm formation on the implant surface (yeast pipetted into a hole between implants); format: cell-based; conditions: 3.5 mg peptide in 100 mg powder cement component; two days; implant without peptide 1.8 × 10^3
Description: The experiment was performed under similar conditions as described in Example 5. Here, 100 mg of the powder cement component was used to prepare a paste, which was mixed with in 3.5 mg of peptide XIII and subsequently 52 µl of liquid component. The resulting paste was thoroughly mixed and then pressed into a hole prepared in the spongy part of the bone. To a next hole in the spongy part of the same bone a paste was pressed, containing comparative peptide Hal 2/4 (3.5 mg) with the sequence H-[…]NH2, which was also prepared from 100 mg of the powder component and 52 µl of the liquid component. The third hole was filled with paste without peptide prepared from the same amount of components. The Candida albicans yeast (clinical isolate Olomouc), grown in YPG, was pipetted in the hole excavated between implants equidistant (approximately 1 cm) from each. From there, the yeast penetrated through the bone tissue and was deposited on the implant with consequent formation of biofilms.
Then the implants in closed tubes with 0.4 ml of saline were treated ultrasonically four times for three minutes with occasional shaking. This way, microbial biofilm on the surface of the implant was disrupted and microbes loosed into the physiological saline. The resulting suspension was then diluted in a decimal dilution series for culturing on agar. […]

Bacillus subtilis = format: cell-based; conditions: B.s.; 37° C for 20 h
Description: (§1) Gram-positive bacteria (Bacillus subtilis, Staphylococcus aureus, Staphylococcus epidermidis and Enterococcus faecalis), Gram-negative bacteria (Escherichia coli and Pseudomonas aeruginosa) and the yeast (Candida albicans) were grown to exponential phase and then were diluted with fresh medium. BHI medium (Oxoid, Great Britain) was used for Enterococcus faecalis; YPD medium containing yeast extract, peptone and glucose was used for Candida albicans and LB medium (Sigma, Czech Republic) was used for the remaining microorganisms. Then the microorganisms were added to the solutions of the tested antimicrobial peptides in LB medium in multi-well plates, so that the final peptide concentration it the wells was in the range of 0.5 to 100 µmοl.1^-1. The plates were incubated at 37° C for 20 h while being continuously shaken in a Bioscreen C (Oy Growth Curves AB Ltd., Helsinki, Finland). Absorbance was measured at 540 nm every 15 min. Antimicrobial activity (Table 2) was determined as a quantitative minimum inhibitory concentration (MIC) by observing bacterial growth in the presence of different concentrations of tested peptides. In the experiments, ca 10^5 CFU of bacteria or candida per well were used. Tetracycline in a concentration range of 0.5 - 100 µmol.1^-1 was used as a standard.
(§2) Clinical isolates of bacteria were obtained from University Hospital in Motol, Prague, Czech Republic and from Liberec Regional Hospital, Czech Republic. Methicillin resistant Staphylococcus aureus (MRSA) 6271 and Pseudomonas aeruginosa 5482 were from the Czech National Collection of Type Cultures, the National Institute of Public Health, Prague, Czech Republic. Other bacteria were from the Czech Collection of Microorganisms, Brno, Czech Republic. Candida albicans came from the Faculty of Medicine, Palacky University, Olomouc, Czech Republic. Candida tropicalis ATCC 750 and Candida glabrata DSY 565 were obtained from the Institute of Physiology, Academy of Sciences of the Czech Republic.

Candida albicans = format: cell-based; conditions: C.a.; 37° C for 20 h
Description: as §1, §2

Escherichia coli = format: cell-based; conditions: E.c.; 37° C for 20 h
Description: as §1, §2

[2] = tested on: MRSA (clin. isolate Liberec); format: cell-based, Staphylococcus aureus; conditions: 37° C for 20 h
Description: as §1, §2

[3] = tested on: MRSA (clin. isolate Motol); format: cell-based, Staphylococcus aureus; conditions: 37° C for 20 h
Description: as §1, §2

MRSA 6271 = format: cell-based, Staphylococcus aureus; conditions: 37° C for 20 h
Description: as §1, §2

[4] = tested on: S.e. (clin. isolate Motol); format: cell-based, Staphylococcus epidermidis; conditions: 37° C for 20 h
Description: as §1, §2

[5] = tested on: E.f. (clin. isolate Motol); format: cell-based, Enterococcus faecalis; conditions: 37° C for 20 h
Description: as §1, §2

[6] = tested on: P.a. (clin. isolate Liberec); format: cell-based, Pseudomonas aeruginosa; conditions: 37° C for 20 h
Description: as §1, §2

P.a. 5482 = format: cell-based, Pseudomonas aeruginosa; conditions: 37° C for 20 h
Description: as §1, §2

human red blood cells = assay: Determination of haemolytic activity; format: cell-based; conditions: human red blood cells (5% v/v), 1 h at 37 °C; concentration for lysis of 50% of erythrocytes
Description: The peptides in the concentrations 2-400 µmol.1^-1 were incubated with the suspension of human red blood cells (5% v/v) for 1 h at 37 °C in a physiological solution at a final volume of 0.2 ml. The samples were then centrifuged for 5 min at 250 g. The absorbance of the supernatant was determined at 540 nm. 0.2% (v/v) TRITON X100 was used as a control for 100% haemolysis. Haemolytic activity is expressed as the peptide concentration required for lysis of 50% of human erythrocytes in the assay (LC50). Table 2. Antimicrobial and haemolytic activity of I up to XIII peptides and tetracycline.

[7] = tested on: S. aureus (clin. isolate Liberec); assay: Induced osteomyelitis model in femur heads: effect of peptides released from carrier on infection in the bone graft; format: cell-based; conditions: ChronOS (200 mg), 10 mg, two days
Description: (§3) 3-4 holes of a diameter of 5 mm and a depth of 10 mm are drilled with a surgical spoon into a femur head under sterile conditions (spongy part of the bone in the resection site). Thereafter, this bone graft is put into a beaker of appropriate size and lined with sterile gauze squares. The gauze is moistened with sterile physiological saline to prevent drying of the bone. Then, suspension of multiplied microbes in an appropriate medium (50-100 µl) at a concentration of 10^7 to 10^9 CFU is sequentially applied to the prepared holes in the bone graft and allowed to incubate for 1-2 days. […] Beaker with the infected bone graft is covered with a sterile Petri dish. During the experiment, induced osteomyelitis models are kept protected from light at room temperature.
(§4) After the incubation, the infected holes in the bone are filled with a mixture of the local carrier, and a peptide selected from the series of peptides of formulae I to XIII or their specific enantiomers (Figure 1). For comparison, one of the holes is filled with the local carrier without peptide, or the carrier filled with antibiotic (vancomycin or gentamicin). A commercially available two-component material supplied by Synthes (Synthes GmbH, Switzerland) under the name ChronOS Inject was used as the carrier. Its solid component comprises a mixture of calcium phosphates CaHPO4.2H2O and Ca3(PO4)2 and additives, the liquid component is 0.5% (vol./vol.) solution of hyaluronic acid.
(§5) After two days, the filling is thoroughly removed with a surgical spoon and empty holes are wiped with moistened sterile cotton swab, which is then extracted into 400 µl physiological saline. The extract is diluted in a tenfold serial dilution and each diluted suspension is cultured on agar in Petri dishes; the culture is evaluated on the following day. […] The result of the peptide effect is also compared with the result of the effect of antibiotics. In some cases, microbiological examination of the bone tissue taken with a surgical spoon from a deeper area of the drilled holes is performed. […] Table 3. Evaluation of the effect of antimicrobial peptides released from the carrier on an infection in the bone graft. Effect of antimicrobial activity is expressed in the number of CFU (colony-forming units) in the infected hole after swabbing.

[8] = tested on: S. epidermidis (clin. isolate Motol); assay: as above; format: cell-based; conditions: ChronOS (300 mg); 10 mg, separate holes; two days; carrier without peptide 1,2x10^5
Description: as §3, §4, §5

[9] = tested on: Staphylococcus aureus (MRSA 6271); assay: Eradication of the infection inside the spongy bone tissue (bone grafts, peptide in carrier); format: cell-based; conditions: carrier (200 mg) with peptide VIII (10 mg), two days
Description: Experiments was carried out similarly as described above using two graft bones. The suspension of Staphylococcus aureus (MRSA 6271) in LB medium (50 - 100 µl) in the concentration 10^9 CFU/ml was pipetted into two holes drilled in each bone graft. On the next day the one hole in one bone graft was filled with the carrier (200 mg) blended with peptide VIII (10 mg). The second hole was filled with carrier alone (200 mg). In the second bone graft the two holes were filled identically.
The experiments were evaluated after two days of the treatment by the comparison of the number of bacterial colonies (CFU/ml) related to the infected hole in which the peptide was released from the carrier and acted against the infection, against the number of the colonies related to the infected hole which was filled only with the carrier alone. The results of these two independent experiments which are summarized in Table 5 clearly show high efficacy of the peptide VIII. Table 5. Effect of peptide VIII on the eradication of the infection inside the spongy bone tissue Carried out in two independent experiments.

[10] = tested on: MRSA (clin. isolate Liberec); assay: Biofilm formation on the surface of a bone cement implant in femur heads; format: cell-based, Staphylococcus aureus; conditions: two days, cement without peptide 7,0x10^6
Description: The resulting elastic paste is placed into a 2 ml plastic syringe (without needle) and pressed into the infected holes in the spongy part of the bone, where it polymerizes and hardens. For comparison, other similarly infected holes are filled with cement containing only an antibiotic or antimycotic agent. For comparison, a Vancogenx® cement (Tecresa S. p. A., Italy) is used, made from a mixture of a powdered polymer component containing vancomycin and gentamicin. The mixture in an amount of 125 mg is mixed with liquid monomer (50-60 µl) and then pressed into the openings as described above. In another embodiment, the cements are applied to uninfected holes, allowed to harden, and then microbes are pipetted into the hole excavated between implants. From there they penetrate through bone tissue and settle on the implants with consequent formation of biofilms.
After two days, implants are removed with metal spikes and tweezers, mechanically cleaned from debris of bone tissue, and washed four times with physiological saline (0.5 ml) in plastic tubes to remove any residual planktonic microbes or bone cells from their surface. The implants in closed tubes with 0.4 ml saline are then sonicated four times for 3 min with occasional shaking. The of microbial biofilm on the surface of the implant is thus disrupted and microbes are loosed into the physiological saline. […]

**Q.** How did the “number of colonies from the surface of the implant” value [1] turn out when `CC[C@H](C)[C@H](NC(=O)[C@H](CCCCN)NC(=O)[C@H](CCCCN)NC(=O)[C@H](CC(C)C)NC(=O)[C@H](CC(C)C)NC(=O)[C@H](CO)NC(=O)[C@H](CCSC)NC(=O)[C@H](Cc1c[nH]c2ccccc12)NC(=O)[C@@H](N)CCCCN)C(=O)N[C@@H](CC(C)C)C(=O)N[C@@H](CCCCN)C(N)=O` [Hal 4/2, reference compound] (H-KWMSLLKKILK-NH2) was run?
**A.** 2.8 × 10^2 CFU/implant

**Q.** What does the source list for `CC[C@H](C)[C@H](NC(=O)[C@H](CCCCN)NC(=O)[C@H](CCCCN)NC(=O)[C@H](CC(C)C)NC(=O)[C@H](CC(C)C)NC(=O)[C@H](CCCCN)NC(=O)[C@@H](NC(=O)[C@H](Cc1c[nH]c2ccccc12)NC(=O)[C@H](CCCCN)NC(=O)CN)C(C)C)C(=O)N[C@@H](CC(C)C)C(=O)N[C@@H](CCCCN)C(N)=O` [Peptide VIII] (H-GKWVKLLKKILK-NH2)?
**A.** Antimicrobial activity MIC (Bacillus subtilis): 2,0 µmol.l^-1; Antimicrobial activity MIC (Candida albicans): 6,3 µmol.l^-1; Antimicrobial activity MIC (Escherichia coli): 6,3 µmol.l^-1; Antimicrobial activity MIC [2]: 5,0 µmol.l^-1; Antimicrobial activity MIC [3]: 10,0 µmol.l^-1; Antimicrobial activity MIC (MRSA 6271): 9,0 µmol.l^-1; Antimicrobial activity MIC [4]: 2,5 µmol.l^-1; Antimicrobial activity MIC [5]: >100 µM; Antimicrobial activity MIC [6]: 12,7 µmol.l^-1; Antimicrobial activity MIC (P.a. 5482): 3,0 µmol.l^-1; Hemolytic activity LC50 (human red blood cells): >400 µmol/L; CFU/hole ([7]; separate holes, carrier without peptide 3,9x10^6): 0 CFU/hole; CFU/hole [8]: 0 in all cases CFU/hole; CFU/hole ([9]; first experiment, no peptide 1.2x10^7): 0 CFU/ hole; CFU/hole ([9]; second experiment, no peptide 3.6x10^6): 4.8x10^2 CFU/ hole

**Q.** For `CC[C@H](C)[C@H](NC(=O)[C@H](CCCCN)NC(=O)[C@H](CCCCN)NC(=O)[C@H](CC(C)C)NC(=O)[C@H](CCSC)NC(=O)[C@H](CCCCN)NC(=O)[C@H](CCSC)NC(=O)[C@H](Cc1c[nH]c2ccccc12)NC(=O)[C@H](CCCCN)NC(=O)CN)C(=O)N[C@@H](CC(C)C)C(=O)N[C@@H](CCCCN)C(N)=O` [XI] (H-GKWMKMLKKILK-NH2), which “Antimicrobial activity MIC” value (Bacillus subtilis) is on record?
**A.** 2,5 µmol.l^-1

**Q.** What about the “Antimicrobial activity MIC” value (Candida albicans) of the same compound?
**A.** 12,7 µmol.l^-1

**Q.** What about the “Antimicrobial activity MIC” value (Escherichia coli) of the same compound?
**A.** 20,0 µmol.l^-1

**Q.** And the “Antimicrobial activity MIC” value [2]?
**A.** 10,0 µmol.l^-1

**Q.** What about the “Antimicrobial activity MIC” value [3] of the same compound?
**A.** 20,0 µmol.l^-1

**Q.** What about the “Antimicrobial activity MIC” value (MRSA 6271) of the same compound?
**A.** 20,0 µmol.l^-1

**Q.** And the “Antimicrobial activity MIC” value [4]?
**A.** 3,2 µmol.l^-1

**Q.** What about the “Antimicrobial activity MIC” value [5] of the same compound?
**A.** >100 µM

**Q.** And the “Antimicrobial activity MIC” value [6]?
**A.** 12,7 µmol.l^-1

**Q.** What about the “Antimicrobial activity MIC” value (P.a. 5482) of the same compound?
**A.** 5,3 µmol.l^-1

**Q.** And the “Hemolytic activity LC50” value (human red blood cells)?
**A.** >>200 µmol.l^-1

**Q.** And the CFU/hole ([7]; carrier without peptide 2,0x10^6)?
**A.** 2,5 x10^3 CFU/hole

**Q.** And the CFU/implant [10]?
**A.** 0 CFU/implant
